Assay results: patent publication US20260015337A1 (Trawsfynydd Therapeutics, Inc., priority 2022, published 2026)

These compounds were tested against 3CL Protease (Severe acute respiratory syndrome coronavirus 2, UniProt P0DTD1) (assay: 3CL Protease enzymatic activity assay (BPS Bioscience Assay Kit #78043-1, fluorescence)). Details: Table A; 30 min preincubation, 40 μM substrate, 4 hours at room temperature; read-out: IC50, nM (3CL Protease enzymatic activity).
Type: biochemical, SARS-CoV-2
Method: For determination of 3CL Protease enzymatic activity was used Assay Kit of BPS Bioscience, San Diego, CA (Catalog #78043-1).
All samples and controls should be tested in duplicate. • 1) Just before use, dilute 0.5 M DTT 500 times into the 3CL Protease Assay Buffer to obtain a DTT concentration of 1 mM. For example, add 10 μl of 0.5 M DTT to 5 ml of assay buffer. Prepare enough DTT-containing buffer as required for the assay. Store the remaining assay buffer at −20° C. • 2) Thaw the 3CL Protease on ice. Briefly spin the tube containing the enzyme to recover the full content of the tube. Note: 3CL Protease enzyme is sensitive to freeze/thaw cycles. […] Note: The exact concentration and volume of enzyme is lot-specific and will be indicated on the tube. Calculate required dilution from the information in the tube. It may be desirable to dilute the enzyme serially to avoid using large amounts of protease assay buffer for the dilution. • 4) Add 30 μl of diluted 3CL Protease to the wells designated as “Positive Control,” “Inhibitor Control,” and “Test Inhibitor.” Add 30 μl of Assay Buffer (containing 1 mM DTT) to the “Blank” wells. • 5) Dilute the 50 μg GC376 in 200 μl of Assay Buffer to obtain a 500 μM solution. Add 10 μl of GC376 (500 μM) to the wells labeled “Inhibitor Control”. Aliquot and store the remaining solution at −80° C. • 6) Prepare the Test Inhibitor. The final concentration of DMSO in the assay should not exceed 1%. If the Test Inhibitor is dissolved in DMSO, make a 100-fold higher concentration of the compound than the highest desired concentration. Then make a 20-fold dilution in 1× Assay Buffer (containing DTT). At this step the compound concentration is 5-fold higher than the final concentration. If the test inhibitor is dissolved in water, make a 5-fold higher concentration of the test compound than the final desired concentration in the Assay buffer (containing DTT). Add 10 μl of Test Inhibitor to each well designated “Test Inhibitor”. • 7) Diluent Solution (no inhibitor): add 10 μl of assay buffer (if the test compound is water soluble and was diluted in assay buffer) or 10 μl of 5% DMSO diluted in assay buffer (if DMSO was used to dissolve the test inhibitor) to “Blank” and “Positive Control” wells.
• 8) Preincubate for 30 min at room temperature with slow shaking. • 9) Dilute the 25 μl of 3CL Protease substrate (10 mM) in 1.25 ml of the Assay Buffer containing DTT, to make a […] solution. The final concentration of the 3CL Protease substrate in a 50 μl reaction is 40 μM. • 10) Start the reaction by adding 10 μl of the substrate solution to all the wells. Seal the plate with the plate sealer and incubate for 4 hours at room temperature with slow shaking. • 11) Measure the fluorescence intensity in a microtiter plate-reader fluorometer (Tecan Spark Cyto) capable of excitation at a wavelength 360 nm and detection of emission at a wavelength 460 nm. The fluorescence intensity can also be measured kinetically. The “Blank” value is subtracted from all other values. • The % inhibition was then used to calculate the IC50 values.

| SMILES | IC50 [nM] |
| --- | --- |
| Cc1ccc2c(c1)CC(CC(C#N)NC(=O)[C@@H]1[C@@H]3[C@H](CN1C(=O)[C@@H](NC(=O)C(F)(F)F)C(C)(C)C)C3(C)C)C(=O)N2 (stereo partly drawn) [Compound 199, (1R,2S,5S)—N-[1-Cyano-2-(6-methyl-2-oxo-3,4-dihydro-1H-quinolin-3-yl)ethyl]-3-[(2S)-3,3-dimethyl-2-[(2,2,2-trifluoroacetyl)amino]butanoyl]-6,6-dimethyl-3-azabicyclo[3.1.0]hexane-2-carboxamide] | < 50 |
| CCOC(=O)N[C@@H](C(=O)N1CC2C(C1C(=O)N[C@@H](C#N)Cc1cc3cc(C)ccc3[nH]c1=O)C2(C)C)C(C)(C)C (stereo in doubt) [Compound 201, Ethyl N-[(1R)-1-[(1S)-2-[[(1R)-1-cyano-2-(6-methyl-2-oxo-1H-quinolin-3-yl)ethyl]carbamoyl]-6,6-dimethyl-3-azabicyclo[3.1.0]hexane-3-carbonyl]-2,2-dimethyl-propyl]carbamate] | 50 to 100 |
| CC(C)(C)[C@H](NC(=O)C(F)(F)F)C(=O)N1C[C@H]2C([C@H]1C(=O)NC(C#N)Cc1cc3c([nH]c1=O)CCC(F)(F)C3)C2(C)C (stereo in doubt) [Compound 125, (1R,2S,5S)—N-(1-Cyano-2-(6,6-difluoro-2-oxo-1,2,5,6,7,8-hexahydroquinolin-3-yl)ethyl)-3-((S)-3,3-dimethyl-2-(2,2,2-trifluoroacetamido)butanoyl)-6,6-dimethyl-3-azabicyclo[3.1.0]hexane-2-carboxamide] | 250 to 500 |
| Cc1ccc2[nH]c(=O)c(C[C@@H](C#N)NC(=O)[C@@H]3[C@@H]4[C@H](CN3C(=O)C(C)c3cc(C(F)(F)F)n[nH]3)C4(C)C)cc2c1 (stereo partly drawn) [Compound 194] | ≥ 1000 |
| CC1(C)CCc2[nH]c(=O)c(CC(C#N)NC(=O)[C@@H]3C4[C@H](CN3C(=O)[C@@H](NS(C)(=O)=O)C(C)(C)C)C4(C)C)cc2C1 (stereo in doubt) [Compound 128, (1R,2S,5S)—N-(1-Cyano-2-(6,6-dimethyl-2-oxo-1,2,5,6,7,8-hexahydroquinolin-3-yl)ethyl)-3-((S)-3,3-dimethyl-2-(methylsulfonamido)butanoyl)-6,6-dimethyl-3-azabicyclo[3.1.0]hexane-2-carboxamide] | 500 to 1000 |
| Cc1ccc2[nH]c(=O)c(C[C@@H](C#N)NC(=O)[C@@H]3C4[C@H](CN3C(=O)[C@@H](NS(C)(=O)=O)C(C)(C)C)C4(C)C)cc2c1 (stereo in doubt) [Compound 147, (1R,2S,5S)—N-[(1S)-1-cyano-2-(6-methyl-2-oxo-1H-quinolin-3-yl)ethyl]-3-[(2S)-2-(methanesulfonamido)-3,3-dimethyl-butanoyl]-6,6-dimethyl-3-azabicyclo[3.1.0]hexane-2-carboxamide] | < 50 |
| Cc1cc2cc(C[C@@H](C#N)NC(=O)[C@@H]3[C@@H]4[C@H](CN3C(=O)[C@@H](NC(=O)C(F)(F)F)C(C)(C)C)C4(C)C)c(=O)[nH]c2cc1F [Compound 176, (1R,2S,5S)—N—((S)-1-Cyano-2-(7-fluoro-6-methyl-2-oxo-1,2-dihydroquinolin-3-yl)ethyl)-3-((S)-3,3-dimethyl-2-(2,2,2-trifluoroacetamido)butanoyl)-6,6-dimethyl-3-azabicyclo[3.1.0]hexane-2-carboxamide] | 50 to 100 |
| Cc1ccc2[nH]c(=O)c(CC(C#N)NC(=O)[C@@H]3[C@H]4[C@H](CN3C(=O)[C@@H](Nc3ccnc(C)n3)C(C)(C)C)C4(C)C)cc2c1 (stereo partly drawn) [Compound 153, 3-[3,3-Dimethyl-2-(2-methyl-pyrimidin-4-ylamino)-butyryl]-6,6-dimethyl-3-aza-bicyclo[3.1.0]hexane-2-carboxylic acid [1-cyano-2-(6-methyl-2-oxo-1,2-dihydro-quinolin-3-yl)-ethyl]-amide] | ≥ 1000 |
| Cc1ccc2[nH]c(=O)c(C[C@@H](C#N)NC(=O)[C@@H]3[C@@H]4[C@H](CN3C(=O)[C@@H](NS(=O)(=O)CC(F)(F)F)C(C)(C)C)C4(C)C)cc2c1 [Compound 195, (1R,2S,5S)—N—((S)-1-Cyano-2-(6-methyl-2-oxo-1,2-dihydroquinolin-3-yl)ethyl)-3-((S)-3,3-dimethyl-2-((2,2,2-trifluoroethyl)sulfonamido)butanoyl)-6,6-dimethyl-3-azabicyclo[3.1.0]hexane-2-carboxamide] | < 50 |
| CC(C)(C)[C@H](NC(=O)C(F)(F)F)C(=O)N1C[C@H]2C([C@H]1C(=O)NC(C#N)Cc1cc3ccc(Cl)cc3[nH]c1=O)C2(C)C (stereo in doubt) [Compound 105, (1R,2S,5S)—N-(2-(7-Chloro-2-oxo-1,2-dihydroquinolin-3-yl)-1-cyanoethyl)-3-((S)-3,3-dimethyl-2-(2,2,2-trifluoroacetamido)butanoyl)-6,6-dimethyl-3-azabicyclo[3.1.0]hexane-2-carboxamide] | 50 to 100 |
| CC(C)(C)[C@H](NS(C)(=O)=O)C(=O)N1C[C@H]2[C@@H]([C@H]1C(=O)N[C@H](C#N)Cc1cc3cnccc3[nH]c1=O)C2(C)C [Compound 188, (1R,2S,5S)—N—((S)-1-Cyano-2-(2-oxo-1,2-dihydro-1,6-naphthyridin-3-yl)ethyl)-3-((S)-3,3-dimethyl-2-(methylsulfonamido)butanoyl)-6,6-dimethyl-3-azabicyclo[3.1.0]hexane-2-carboxamide] | < 50 |
| COC(=O)N[C@@H](C(=O)N1CC2C(C1C(=O)N[C@@H](C#N)Cc1cc3cc(C)ccc3[nH]c1=O)C2(C)C)C(C)(C)C (stereo in doubt) [Compound 200, Methyl N-[(1R)-1-[(1S)-2-[[(1R)-1-cyano-2-(6-methyl-2-oxo-1H-quinolin-3-yl)ethyl]carbamoyl]-6,6-dimethyl-3-azabicyclo[3.1.0]hexane-3-carbonyl]-2,2-dimethyl-propyl]carbamate] | < 50 |
| Cc1ccc2[nH]c(=O)c(C[C@@H](C#N)N(C)C(=O)[C@@H]3[C@@H]4[C@H](CN3C(=O)[C@@H](NC(=O)C(F)(F)F)C(C)(C)C)C4(C)C)cc2c1 [Compound 183, (1R,2S,5S)-N-[(1S)-1-cyano-2-(6-methyl-2-oxo-1H-quinolin-3-yl)ethyl]-3-[(2S)-3,3-dimethyl-2-[(2,2,2-trifluoroacetyl)amino]butanoyl]-N,6,6-trimethyl-3-azabicyclo[3.1.0]hexane-2-carboxamide] | ≥ 1000 |
| Cc1ccc2[nH]c(=O)c(CC(C#N)NC(=O)[C@@H]3C4[C@H](CN3C(=O)[C@@H](NC(=O)OC(C)(C)C)C(C)(C)C)C4(C)C)cc2c1 (stereo in doubt) [Compound 171, tert-Butyl ((2S)-1-((1R,2S,5S)-2-((1-cyano-2-(6-methyl-2-oxo-1,2-dihydroquinolin-3-yl)ethyl)carbamoyl)-6,6-dimethyl-3-azabicyclo[3.1.0]hexan-3-yl)-3,3-dimethyl-1-oxobutan-2-yl)carbamate] | 250 to 500 |
| Cc1ccc2[nH]c(=O)c(C[C@@H](C#N)NC(=O)[C@@H]3C4[C@H](CN3C(=O)[C@@H](Nc3nccc(C)n3)C(C)(C)C)C4(C)C)cc2c1 (stereo in doubt) [Compound 160, (1R,2S,5S)—N—((S)-1-Cyano-2-(6-methyl-2-oxo-1,2-dihydroquinolin-3-yl)ethyl)-3-((S)-3,3-dimethyl-2-((4-methylpyrimidin-2-yl)amino)butanoyl)-6,6-dimethyl-3-azabicyclo[3.1.0]hexane-2-carboxamide] | ≥ 1000 |
